From ChEMBL document CHEMBL1145442, “Multistructure 3D-QSAR studies on a series of conformationally constrained butyrophenones docked into a new homology model of the 5-HT2A receptor” (J Med Chem, 2007)
pKi: −log10 of the molar value.

Target: 5-hydroxytryptamine receptor 2A (Rattus norvegicus, UniProt P14842)
Test: Binding affinity at rat 5HT2A receptor

5-hydroxytryptamine receptor 2A, sequence (P14842 whole entry): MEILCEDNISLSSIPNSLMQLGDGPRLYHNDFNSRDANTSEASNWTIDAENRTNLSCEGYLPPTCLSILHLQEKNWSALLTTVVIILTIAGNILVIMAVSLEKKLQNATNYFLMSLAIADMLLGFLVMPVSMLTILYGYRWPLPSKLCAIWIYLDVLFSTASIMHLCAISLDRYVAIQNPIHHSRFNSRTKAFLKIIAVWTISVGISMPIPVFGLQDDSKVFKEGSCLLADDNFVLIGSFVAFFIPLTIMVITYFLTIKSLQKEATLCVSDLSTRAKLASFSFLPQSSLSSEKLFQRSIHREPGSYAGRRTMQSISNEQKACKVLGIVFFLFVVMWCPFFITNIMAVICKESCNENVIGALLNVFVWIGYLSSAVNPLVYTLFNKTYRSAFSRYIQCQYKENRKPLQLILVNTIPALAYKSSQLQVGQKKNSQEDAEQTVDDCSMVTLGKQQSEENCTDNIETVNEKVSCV

Row | Structure (SMILES) | pKi
1 | O=C1CC(CN2CCC3(CC2)NCNC3=O)Cc2ccccc21 (stereo unspecified) | < 5.00
2 | O=C1c2ccoc2CCC1CCN1CCN(C(=O)c2ccc(F)cc2)CC1 (stereo unspecified) | 5.70
3 | COc1cc2c(cc1OC)C(=O)CC(CN1CCC3(CC1)NC(=O)NC3=O)C2 (stereo unspecified) | < 5.00
4 | O=C1CC(CN2CCC(c3noc4cc(F)ccc34)CC2)C(c2ccccc2)=NN1 (stereo unspecified) | 7.24

Results, then the compound that gave them:

Row | pKi | Structure (SMILES)
5 | 6.00 | O=C1CC(CN2CCN(CCCCC(=O)c3ccc(F)cc3)CC2)C(c2ccccc2)=NN1 (stereo unspecified)
6 | 6.56 | O=C1CC(CN2CCN(CCCC(=O)c3ccc(F)cc3)CC2)C(c2ccccc2)=NN1 (stereo unspecified)
